Laboratory results from US11702441B2, “Spirobicyclic analogues” (Janssen Pharmaceutica NV, priority 2017, dated 2023).

Target: T1, PRMT5-MEP50 enzyme (Homo sapiens, UniProt O14744)
T1 construct: One virus expresses full length human PRMT5 with Flag-tag at N-terminus; Flag (N); purchased Charles River (Argenta); host or cells: insect cells (Sf9), baculovirus co-infection
Experiment: High throughput mass spectrometer assay of PRMT5-MEP50 enzyme activity (SAH formation)
Type: biochemical
Settings: averaged values; inhibition of SAH formation; 1 μM SAM, 0.3 μM H2A, 1.25 nM enzyme, 30° C.
Description: Reagents. PRMT5-MEP50 enzyme was purchased from Charles River (Argenta). The enzyme complex was produced in insect cells (Sf9) infected simultaneously with two baculoviruses. One virus expresses full length human PRMT5 with Flag-tag at N-terminus, the second virus expresses full length MEP50 with His6-TEV cleavage at N-terminus. The protein was affinity purified using anti-Flag (M2) beads eluted with 3×FLAG peptide, followed by His-Select eluted with 0.5M imidazole. Eluted protein was then dialysed against tris-buffered saline (TBS) (pH 8.0) containing 20% glycerol and 3 mM dithiothreitol (DTT).
Full-length untagged human recombinant histone H2A (residues 1-130, Genbank Accession #NM_021052, MW=14.1 kDa) expressed in E. coli was purchased from Reaction Biology Corporation, Cat #HMT-11-146. Reagents used for making reaction buffer or stopping reaction were purchased including Tris base (Sigma Cat #T-1503), NaCl (Sigma Cat #RGF-3270), MgCl2 (Sigma Cat #M0250), DTT (Invitrogen Cat #15508-013) and Formic Acid (Riedel deHaen, Cat #33015)
High Throughput Mass Spectrometer Assay PRMT5 catalyzes the sequential methylations of the terminal nitrogen atoms on the guanidine groups of arginine residues within proteins using co-substrate S-adenosyl-L-methionine (AdoMet, SAM), forming mono-methyl (MMA), symmetric-dimethyl arginine (sDMA) and S-adenosyl-L-homocysteine (AdoHcy, SAH). The enzyme activity was determined by following the product SAH formation using high throughput mass spectrometry (Agilent Rapidfire 300 System coupled to a Sciex 4000 series QTrap® triple-quad MS/MS). The reaction buffer was 20 mM Tris-HCl, pH 8.5, 50 mM NaCl. 5 mM MgCl2 and 1 mM DTT. The reaction activity was stopped using 1% formic acid (final concentration).
Inhibition Studies. The IC50 Studies were performed using eleven point dosing series made for each compound by serially diluted 1:2 in dimethyl sulfoxide (DMSO), with point 12 being a DMSO control. Compounds were first spotted to plates, and followed by addition of 2 μM SAM and 0.6 μM H2A (histone H2A) solution mixture. The same volume of enzyme solution was added to initiate the enzymatic reactions. The final concentrations of the reaction are at 1 μM SAM, 0.3 μM H2A and 1.25 nM enzyme. The reaction was incubated at 30° C. for 60 minutes (min) when 10 nM enzyme was used and for 120 min when 1.25 nM enzyme was used. Subsequently, the reaction was quenched by addition of formic acid to a final concentration of 1%. The inhibitions of SAH formation in the presence of compounds were calculated as a percentage of the control relative to the uninhibited reaction as a function of inhibitor concentration. The data were fit as follows: Y=Bottom+(Top−Bottom)/(1+10^((log IC50−X)*h))
where IC50 is the inhibitor concentration (same unit as X) at 50% inhibition and h is the Hill slope. Y is percent of inhibition, X is log of compound concentration. Bottom and Top are the plateaus in same units as Y.
The pIC50 values in the Table below are averaged values (Co. No. means compound number: n.d. means not determined)

T1 sequence (O14744 whole entry): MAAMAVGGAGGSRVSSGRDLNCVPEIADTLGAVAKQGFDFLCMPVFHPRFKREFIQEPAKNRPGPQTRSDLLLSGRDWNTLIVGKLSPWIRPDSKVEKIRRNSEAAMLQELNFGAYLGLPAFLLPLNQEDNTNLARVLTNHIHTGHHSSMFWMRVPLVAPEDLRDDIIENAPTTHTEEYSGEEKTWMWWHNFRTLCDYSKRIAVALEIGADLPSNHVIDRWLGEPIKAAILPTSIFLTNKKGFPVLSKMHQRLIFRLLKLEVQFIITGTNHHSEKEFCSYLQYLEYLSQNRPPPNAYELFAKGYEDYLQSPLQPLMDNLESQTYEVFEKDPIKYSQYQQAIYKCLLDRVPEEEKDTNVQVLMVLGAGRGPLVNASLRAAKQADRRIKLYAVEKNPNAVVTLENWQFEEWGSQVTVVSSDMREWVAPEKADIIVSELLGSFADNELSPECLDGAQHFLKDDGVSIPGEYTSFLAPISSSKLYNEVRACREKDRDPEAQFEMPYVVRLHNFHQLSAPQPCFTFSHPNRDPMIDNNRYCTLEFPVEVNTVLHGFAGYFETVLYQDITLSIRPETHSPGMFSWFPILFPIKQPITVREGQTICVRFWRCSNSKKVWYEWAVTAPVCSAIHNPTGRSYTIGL
T1 sequence (Q9BQA1 whole entry partner): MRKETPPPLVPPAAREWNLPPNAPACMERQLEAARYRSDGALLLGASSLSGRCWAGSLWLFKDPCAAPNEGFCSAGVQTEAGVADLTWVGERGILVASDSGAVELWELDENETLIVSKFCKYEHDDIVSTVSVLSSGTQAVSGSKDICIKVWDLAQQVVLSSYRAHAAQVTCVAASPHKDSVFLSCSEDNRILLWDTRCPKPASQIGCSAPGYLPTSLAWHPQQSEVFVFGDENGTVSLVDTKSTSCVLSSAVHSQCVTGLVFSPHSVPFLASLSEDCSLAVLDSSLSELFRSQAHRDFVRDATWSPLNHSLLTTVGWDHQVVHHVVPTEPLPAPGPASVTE

Row | Structure (SMILES) | pIC50 | IC50 [nM]
1 | Cl.Nc1ncnc2c1ccn2[C@@H]1CC2(CC(Cn3c(Cl)cccc3=O)C2)[C@@H](O)[C@H]1O (mixture of isomers) [Compound 32] | 5.69 | 
2 | Nc1ncnc2c1ccn2[C@@H]1C[C@]2(C[C@H](CO)C2)[C@@H](O)[C@H]1O (single isomer, unassigned) [Compound 35] |  | 933
3 | Nc1ncnc2c1ccn2[C@@H]1C[C@]2(C[C@@H](CO)C2)[C@@H](O)[C@H]1O (single isomer, unassigned) [Compound 36] |  | 1410
4 | Nc1ncnc2c1ncn2[C@@H]1O[C@]2(C[C@@H](OCc3ccccc3)C2)[C@@H](O)[C@H]1O [Compound 1] |  | 3020
5 | Nc1ccc2ccc(O[C@H]3C[C@]4(C3)O[C@@H](n3cnc5c(N)ncnc53)[C@H](O)[C@@H]4O)cc2n1 [Compound 2] |  | 30.9
6 | Nc1ncnc2c1ncn2[C@@H]1O[C@]2(C[C@@H](Oc3ccc4ccc(Cl)nc4c3)C2)[C@@H](O)[C@H]1O [Compound 3] |  | 8130
7 | Nc1ncnc2c1ncn2[C@@H]1O[C@]2(C[C@@H](Oc3ccc4cc(Br)cnc4c3)C2)[C@@H](O)[C@H]1O [Compound 4] |  | 3020
8 | Nc1ccc2ccc(O[C@H]3C[C@@]4(C3)O[C@@H](n3cnc5c(N)ncnc53)[C@H](O)[C@@H]4O)cc2n1 [Compound 5] |  | 9.33
9 | Nc1ncnc2c1ncn2[C@@H]1O[C@]2(C[C@H](Oc3ccc4cc(Br)cnc4c3)C2)[C@@H](O)[C@H]1O [Compound 6] |  | 120
10 | Nc1ncnc2c1ncn2[C@@H]1O[C@]2(C[C@@H](O)C2)[C@@H](O)[C@H]1O [Compound 7] |  | 5010
11 | Nc1ncnc2c1ncn2[C@@H]1O[C@]2(C[C@H](O)C2)[C@@H](O)[C@H]1O [Compound 8] |  | 3550
12 | Nc1ncnc2c1ncn2[C@@H]1O[C@]2(C[C@H](Oc3ccc4cc(Cl)cnc4c3)C2)[C@@H](O)[C@H]1O [Compound 9] |  | 257
13 | Nc1ncnc2c1ccn2[C@@H]1C[C@]2(C[C@H](Oc3ccc4cccnc4c3)C2)[C@@H](O)[C@H]1O [Compound 11] |  | 91.2
14 | Nc1ncnc2c1ccn2[C@@H]1C[C@]2(C[C@H](Oc3ccc4cc(Cl)cnc4c3)C2)[C@@H](O)[C@H]1O [Compound 12] |  | 2400
15 | Nc1ncnc2c1ccn2[C@@H]1C[C@]2(C[C@@H](Oc3ccc4cc(Cl)cnc4c3)C2)[C@@H](O)[C@H]1O [Compound 13] |  | 646
16 | Nc1ncnc2c1ccn2[C@@H]1C[C@]2(C[C@H](Cc3ccc4cc(Cl)cnc4c3)C2)[C@@H](O)[C@H]1O [Compound 14] |  | 2000
17 | Nc1ncnc2c1ccn2[C@@H]1C[C@]2(C[C@@H](Cc3ccc4cc(Cl)cnc4c3)C2)[C@@H](O)[C@H]1O [Compound 15] |  | 1100
18 | Nc1ncnc2c1ccn2[C@@H]1C[C@]2(C[C@H](Cc3ccc4scnc4c3)C2)[C@@H](O)[C@H]1O [Compound 16] |  | 490

Row | Structure (SMILES) | pIC50 | IC50 [nM]
19 | Nc1ncnc2c1ccn2[C@@H]1C[C@]2(C[C@@H](Cc3ccc4scnc4c3)C2)[C@@H](O)[C@H]1O [Compound 17] |  | 389
20 | Nc1nc2cc(C[C@H]3C[C@]4(C[C@@H](n5ccc6c(N)ncnc65)[C@H](O)[C@@H]4O)C3)ccc2s1 [Compound 18] |  | 35.5
21 | Nc1nc2cc(C[C@H]3C[C@@]4(C[C@@H](n5ccc6c(N)ncnc65)[C@H](O)[C@@H]4O)C3)ccc2s1 [Compound 19] |  | 132
22 | Nc1ncnc2c1ccn2[C@@H]1C[C@]2(C[C@H](Cc3ccc4ncsc4c3)C2)[C@@H](O)[C@H]1O [Compound 20] |  | 490
23 | Nc1ncnc2c1ccn2[C@@H]1C[C@]2(C[C@@H](Cc3ccc4ncsc4c3)C2)[C@@H](O)[C@H]1O [Compound 21] |  | 145
24 | Nc1nc2ccc(C[C@H]3C[C@]4(C[C@@H](n5ccc6c(N)ncnc65)[C@H](O)[C@@H]4O)C3)cc2s1 [Compound 22] |  | 1580
25 | Nc1nc2ccc(C[C@H]3C[C@@]4(C[C@@H](n5ccc6c(N)ncnc65)[C@H](O)[C@@H]4O)C3)cc2s1 [Compound 23] |  | 295
26 | Nc1ncnc2c1ccn2[C@@H]1C[C@]2(C[C@H](Cc3ccn4ccnc4c3)C2)[C@@H](O)[C@H]1O [Compound 24] |  | 9.12
27 | Nc1ncnc2c1ccn2[C@@H]1C[C@]2(C[C@@H](Cc3ccn4ccnc4c3)C2)[C@@H](O)[C@H]1O [Compound 25] |  | 10.2
28 | Nc1ncnc2c1ccn2[C@@H]1C[C@]2(C[C@H](Cc3ccccn3)C2)[C@@H](O)[C@H]1O [Compound 26] |  | 2450
29 | Nc1ncnc2c1ccn2[C@@H]1C[C@]2(C[C@@H](Cc3ccccn3)C2)[C@@H](O)[C@H]1O [Compound 27] |  | 5620
30 | Nc1ncnc2c1ccn2[C@@H]1C[C@]2(C[C@H](Cc3cccnc3)C2)[C@@H](O)[C@H]1O [Compound 28] |  | 145
31 | Nc1ncnc2c1ccn2[C@@H]1C[C@]2(C[C@@H](Cc3cccnc3)C2)[C@@H](O)[C@H]1O [Compound 29] |  | 170
32 | Nc1ncnc2c1ccn2[C@@H]1C[C@]2(C[C@H](COc3cccc(Cl)n3)C2)[C@@H](O)[C@H]1O [Compound 30] |  | 1620
33 | Nc1ncnc2c1ccn2[C@@H]1C[C@]2(C[C@@H](COc3cccc(Cl)n3)C2)[C@@H](O)[C@H]1O [Compound 31] |  | 3470
34 | Nc1nc2cc(C[C@H]3C[C@]4(C[C@@H](n5ccc6c(N)ncnc65)[C@H](O)[C@@H]4O)C3)ccc2cc1Br [Compound 33] |  | 245
35 | Nc1ncnc2c1ncn2[C@@H]1O[C@]2(C[C@H](Cc3ccc4cc(Cl)cnc4c3)C2)[C@@H](O)[C@H]1O [Compound 44] |  | 4570
36 | Nc1ncnc2c1ncn2[C@@H]1O[C@]2(C[C@@H](Cc3ccc4cc(Cl)cnc4c3)C2)[C@@H](O)[C@H]1O [Compound 45] |  | 5500
